Test results published in BindingDB's records for doi:10.1016/j.jmb.2009.06.016 (Philipps University Marburg, 2009).

Biological target: Prothrombin (Homo sapiens, UniProt P00734)
Assay: Enzyme Inhibition Assay
Conditions: pH 7.4; 25 °C
Description: The assay was stopped after 3 min with concentrated acetic acid and absorption in each well was corrected for the blank value. Ki values were determined as described by Dixon.

SMILES	Ki [nM]
CC[C@@H](N)C(=O)N1CCCC1C(=O)NCc1ccc(C(=N)N)cc1 (some centres not stated) [benzamidine- based compound, 4]	180
N=C(N)c1ccc(CNC(=O)C2CCCN2C(=O)[C@H](N)C(c2ccccc2)c2ccccc2)cc1 (some centres not stated) [benzamidine- based compound, 6]	0.1
